Source: US7354935B2, “Radiolabeled neurokinin-1 receptor antagonists” (Merck & Co. Inc., priority 2002, dated 2008)

Experiments:
[1] = Percent of parent tracer remaining in monkey plasma (plasma half-life comparison, TLC/gamma counting); format: in vivo, rhesus monkey; conditions: for % parent tracer remaining in monkey plasma / Amount of tracer remaining in plasma relative to the protonated tracer: rhesus monkey; for Amount of tracer remaining in plasma relative to the protonated tracer: versus Compound A
Description: To compare the plasma half-life of [^18F][2-fluoromethoxy-5-(5-trifluoromethyl-tetrazol-1-yl)-benzyl]-([2S,3S]-2-phenyl-piperidin-3-yl)-amine (Compound A) and [^18F][2-fluorodideuteromethoxy-5-(5-trifluoromethyl-tetrazol-1-yl)-benzyl]-([2S,3S]-2-phenyl-piperidin-3-yl)-amine (Compound B) in rhesus monkey, ˜5 mCi of each radiotracer (in saline) was injected by iv into an anesthetized monkey. At various time points, whole blood was drawn, mixed with 0.02 mL of acetonitrile and centrifuged for 3-5 minutes at 5000 rpm. A 0.02 mL aliquot of the acetonitrile extract was spotted on a 5×7 cm TLC plate along with the cold standard and developed using 60:40:0.1 ethyl acetate:methanol:triethylamine. The TLC plate was cut into four sections pertaining to the origin, to determine the amount of fluoride present, the section between the origin and where the standard eluted, to determine polar metabolites, the section where the parent compound eluted, to determine the amount of parent compound remaining, and the area between the parent compound and the solvent front for nonpolar metabolites. The TLC strips were then counted in a gamma counter to determine the number of counts for each section of TLC plate. The percentage of the total counts that were due to the remaining parent compound was determined. […] With the higher prolonged plasma levels of the deuterated tracer, more time is available for a larger specific signal to develop, and for the tracer to accumulate in brain regions that have a low receptor concentration and could be difficult to image using the protonated tracer.

[2] = Brain levels of the tracer; format: in vivo; conditions: comparison in words
NK1 receptor = molecular target: T1, NK1 receptor (Macaca mulatta, UniProt F7GQV6); assay: Chase study with an unlabelled NK1 antagonist, PET regions of interest (chaseability); format: in vivo, rhesus monkey; conditions: for Remaining Specific Binding in Rhesus Monkey after 1 mpk Chase at 180 Minutes with an NK1 Antagonist: striatum minus cerebellum
T1 construct: from tissue; host or cells: brain (striatum and other regions) of a living rhesus monkey, PET imaging
Description: A bolus of an unlabelled NK1 antagonist was administered 180 minutes after a bolus injection of either tracer. From the resulting images, regions of interest were drawn to determine the amount of radioactivity present in different brain regions. […] Also, using the 70% level of chase as a comparison (30% remaining specific binding), the fluoroethoxy compound reaches this level ˜50 minutes before the dideuterofluoromethoxy analog reaches this same level. Because the fluoroethoxy compound [^18F][2-fluoroethoxy-5-(5-trifluoromethyl-tetrazol-1-yl)-benzyl]-([2S,3S]-2-phenyl-piperidin-3-yl)-amine chases from the striatum faster than the fluoromethoxy analog, a more accurate picture of what the true receptor occupancy is can be obtained using the fluoroethoxy analog.

[3] = 5 minutes after iv injection of ~5 mCi
[4] = 15 minutes after iv injection of ~5 mCi
[5] = 30 minutes after iv injection of ~5 mCi
[6] = 45 minutes after iv injection of ~5 mCi
[7] = 60 minutes after iv injection of ~5 mCi
[8] = 120 minutes after iv injection of ~5 mCi
[9] = 180 minutes after iv injection of ~5 mCi

T1 sequence (F7GQV6 1-407): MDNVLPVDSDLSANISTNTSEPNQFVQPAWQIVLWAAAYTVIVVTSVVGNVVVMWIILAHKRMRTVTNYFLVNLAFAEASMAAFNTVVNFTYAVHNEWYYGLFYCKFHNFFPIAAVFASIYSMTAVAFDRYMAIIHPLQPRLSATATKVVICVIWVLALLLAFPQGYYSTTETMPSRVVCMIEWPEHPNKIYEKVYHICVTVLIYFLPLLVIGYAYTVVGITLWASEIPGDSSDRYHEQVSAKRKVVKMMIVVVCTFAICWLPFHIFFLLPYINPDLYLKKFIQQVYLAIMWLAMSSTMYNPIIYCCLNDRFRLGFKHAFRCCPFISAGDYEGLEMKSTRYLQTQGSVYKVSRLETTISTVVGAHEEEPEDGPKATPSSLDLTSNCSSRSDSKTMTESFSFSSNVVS

| Compound | % parent tracer remaining in monkey plasma [1, 3] [%] | % parent tracer remaining in monkey plasma [1, 4] [%] | % parent tracer remaining in monkey plasma [1, 5] [%] | % parent tracer remaining in monkey plasma [1, 6] [%] | % parent tracer remaining in monkey plasma [1, 7] [%] | % parent tracer remaining in monkey plasma [1, 8] [%] | % parent tracer remaining in monkey plasma [1, 9] [%] | Amount of tracer remaining in plasma relative to the protonated tracer ([1]; all time points examined) | Metabolic stability relative to the [18F]fluoromethoxy compound of U.S. Pat. No. 6,241,964 ([1]; comparison in words) | Plasma half-life relative to the [18F]fluoromethoxy compound of U.S. Pat. No. 6,241,964 ([1]; comparison in words) | Amount of tracer remaining in plasma relative to the protonated tracer ([1]; end of the experiment (3 hours)) | Brain levels of the tracer relative to the [18F]fluoromethoxy compound [2] | Remaining Specific Binding in Rhesus Monkey after 1 mpk Chase at 180 Minutes with an NK1 Antagonist (NK1 receptor; 195 minutes after tracer) [%] | Remaining Specific Binding in Rhesus Monkey after 1 mpk Chase at 180 Minutes with an NK1 Antagonist (NK1 receptor; 205 minutes after tracer) [%] | Remaining Specific Binding in Rhesus Monkey after 1 mpk Chase at 180 Minutes with an NK1 Antagonist (NK1 receptor; 230 minutes after tracer) [%] | Remaining Specific Binding in Rhesus Monkey after 1 mpk Chase at 180 Minutes with an NK1 Antagonist (NK1 receptor; 270 minutes after tracer) [%] | Time at which tracer begins to chase (is displaced from the receptor) after administration of the unlabelled antagonist (NK1 receptor; striatum, rhesus monkey) | Remaining Specific Binding in Rhesus Monkey after 1 mpk Chase at 180 Minutes with an NK1 Antagonist (NK1 receptor; 220 minutes after tracer) [%] | Time by which the 70% level of chase (30% remaining specific binding) is reached before the dideuterofluoromethoxy analog (NK1 receptor; striatum, rhesus monkey, versus Compound B) [minutes] | Displacement from the NK1 receptor when unlabelled compounds are administered, relative to the [18F]fluoromethoxy compound (NK1 receptor; comparison in words) |
| --- | --- | --- | --- | --- | --- | --- | --- | --- | --- | --- | --- | --- | --- | --- | --- | --- | --- | --- | --- | --- |
| FC(F)(F)c1nnnn1-c1ccc(OC[18F])c(CN[C@H]2CCCN[C@H]2c2ccccc2)c1 [Compound A, [^18F][2-fluoromethoxy-5-(5-trifluoromethyl-tetrazol-1-yl)-benzyl]-([2S,3S]-2-phenyl-piperidin-3-yl)-amine, reference compound] | 72 | 55 | 38 | 35 | 25 | 16 | 9 |  |  |  |  |  |  |  |  |  |  |  |  |  |
| [2H]C([2H])([18F])Oc1ccc(-n2nnnc2C(F)(F)F)cc1CN[C@H]1CCCN[C@H]1c1ccccc1 [Compound B, [^18F][2-fluorodideuteromethoxy-5-(5-trifluoromethyl-tetrazol-1-yl)-benzyl]-([2S,3S]-2-phenyl-piperidin-3-yl)-amine] | 91 | 87 | 75 | 39 | 41 | 23 | 20 | more of the deuterated tracer remaining in the plasma than the protonated tracer | metabolically more stable | longer plasma half-life | twice as much | relatively higher brain levels | ~96 | ~85 | ~55 | ~30 | about 30 minutes |  |  |  |
| FC(F)(F)c1nnnn1-c1ccc(OCC[18F])c(CN[C@H]2CCCN[C@H]2c2ccccc2)c1 [Compound C, [^18F][2-fluoroethoxy-5-(5-trifluoromethyl-tetrazol-1-yl)-benzyl]-([2S,3S]-2-phenyl-piperidin-3-yl)-amine] |  |  |  |  |  |  |  |  |  |  |  |  | ~85 | ~55 |  |  | almost immediately | ~30 | ~50 |  |
| [^18F][2-fluoroethoxy-5-(5-trifluoromethyl-tetrazol-1-yl)-benzyl]-([2S,3S]-2-phenyl-piperidin-3-yl)-amine [Compound C] |  |  |  |  |  |  |  |  |  |  |  |  |  |  |  |  |  |  |  | faster |
